In assay [1] the target is T1, histamine H1 receptor (Rattus norvegicus, UniProt P31390).
T1 construct: The tissue source was male Sprague-Dawley rat brain; tissue Rockland Corporation, Gilbertsville, Pa; host or cells: male Sprague-Dawley rat brain membranes
Briefly: H1-Receptor Binding Assay ([3H]pyrilamine, rat brain membranes). Conditions: for Ki: Cheng-Prusoff from IC50, HCl salt; for inhibition at 1 µg/mL: HCl salt. An excerpt: General Procedure for H1-Receptor Binding Assay
The procedure used was based on that disclosed in V. T. Tran et al, “Histamine H1 receptors identified in mammalian brain membranes with [H-3]mepyramine”, Proc. Natl. Acad. Sci. U.S.A. 75 (1978) 6290-6294.
I. Tissue preparation protocol for histamine H1 receptor binding assay:
1. The tissue source was male Sprague-Dawley rat brain. These were purchased stripped and frozen (available from Rockland Corporation, Gilbertsville, Pa.). The buffer used was ice-cold 50 mM Tris-HCl, pH 7.5. (The pH was determined at 25° C.)
2. The brains were spread out on plastic wrap on the benchtop and allowed to thaw for 10-15 min. After this, everything was kept ice-cold.
3. Two brains were put in each 50 ml round bottom centrifuge tube and 25 ml of buffer was added. Then they were broken up with a Polytron (from Brinkmann Instruments, Westbury, N.Y.) equipped with a PT-10 tip at setting 6 for 30 sec.
4. The volume in the tube was brought up to 45 ml and mixed and the particulate material was centrifuged at 1000×g (3000 rpm, SS-34 rotor) for 10 min to remove nuclei and unbroken cells.
5. Pellets were discarded and the supernatants were centrifuged 10 min at 50,000×g (20,000 rpm, SS-34 rotor).
6. The high-speed pellets were resuspended in a volume of Tris buffer equal to the original ([…]), the contents of all tubes were pooled, and a sample was taken for BCA protein assay. The material was aliquotted, 45 ml per round-bottom tube, and the resuspension was recentrifuged. The yield of protein was approximately 20 mg/brain, so there was about 40 mg of protein per tube.
7. Pellets were frozen at −80° C.
II. H1 Histamine receptor binding assay:
1. The compounds for assay were independently solubilized at 1 mg/ml DMSO by vortexing, or if necessary by sonication. The first dilution, 100-fold, was made in 50 mM Tris-HCl, pH 7.5, at room temperature. The three or four subsequent ten-fold serial dilutions were made in 1% DMSO/50 mM Tris-HCl, pH 7.5. Drug solutions and assay plates were kept at room temperature during the course of the assay set up.
2. Test compounds were assayed at four or five concentrations: 1, 0.1, 0.01, 0.001, and 0.0001 μg/ml. Twenty μl of drug solution was pipeted into each of three wells.
3. [^3H]Pyrilamine was diluted approximately 2000-fold with ice-cold […] Tris-HCl, pH 7.5 (to a working concentration of 20-25 nM), and put on ice.
4. A frozen tissue pellet was thawed in a 25° C. water bath, resuspended in 50 mM Tris-HCl, pH 7.5, at 1.7-2 mg/ml by brief break-up on the Polytron, and put on ice.
5. Twenty μl of diluted [^3H]pyrilamine was added to each well.
6. One hundred fifty μl of tissue suspension was added to each well.
7. The top of the plate was covered and it was placed in a 25° C. shaking water bath (about 60 oscillations/min) for 30 min.
8. Samples were filtered on a Tomtec Mach 2 harvester (available from Tomtec Corporation, Orange, Conn.) through a GF/B filter mat (from Wallac, Inc., Gaithersburg, Md.) presoaked in 0.3% polyethylenimine. Each sample was thrice washed with ice-cold 50 mM Tris-HCl, pH 7.5 dried 20 sec on the Tomtec, and dried 3-4 min in a microwave oven on a paper towel. The filter was impregnated with MELTILEX brand wax scintillant (from Wallac Corporation) and counted on a Betaplate scintillation counter (from Wallac Corporation).
9. Specific binding was determined as the difference between total and nonspecific binding. The percent inhibition in the presence of inhibitor or standard was determined using the formula:
[1-(sample binding-nonspecific binding)/specific binding]×100
For compounds that inhibit more than 50% at 1 μg/ml, an IC50 value was interpolated from proximate concentrations. […]

The target of assay [2] is T2, H3 receptors (Cavia porcellus, UniProt Q9JI35).
T2 construct: The source of the H3 receptors in this experiment was guinea pig brain; from tissue; host or cells: guinea pig brain membranes
T2 sequence (Q9JI35 whole entry): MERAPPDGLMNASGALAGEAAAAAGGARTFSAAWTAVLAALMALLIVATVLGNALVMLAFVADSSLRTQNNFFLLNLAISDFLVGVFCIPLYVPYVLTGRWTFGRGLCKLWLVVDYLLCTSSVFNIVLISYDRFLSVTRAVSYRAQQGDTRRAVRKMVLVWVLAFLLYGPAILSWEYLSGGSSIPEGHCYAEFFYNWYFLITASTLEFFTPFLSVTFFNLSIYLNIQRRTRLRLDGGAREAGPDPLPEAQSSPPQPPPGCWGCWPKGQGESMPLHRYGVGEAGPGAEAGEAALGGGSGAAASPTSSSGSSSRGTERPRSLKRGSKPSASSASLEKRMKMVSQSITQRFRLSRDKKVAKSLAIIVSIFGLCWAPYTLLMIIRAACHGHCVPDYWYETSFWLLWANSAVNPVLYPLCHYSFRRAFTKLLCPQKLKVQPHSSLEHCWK
In words: H3-Receptor Binding Assay ([3H]R-α-methyl histamine or [3H]Nα-methyl histamine, guinea pig brain membranes). Conditions: for Ki: HCl salt of the indicated compounds; for inhibition at 2 µg/mL: final concentration 2 μg/ml, HCl salt. The protocol: General Procedure for H3-Receptor Binding Assay
The source of the H3 receptors in this experiment was guinea pig brain. The animals weighed 400-600 g. The brain tissue was homogenized with a solution of 50 mM Tris, pH 7.5. The final concentration of tissue in the homogenization buffer was 10% w/v. The homogenates were centrifuged at 1,000×g for 10 min. in order to remove clumps of tissue and debris. The resulting supernatants were then centrifuged at 50,000×g for 20 min. in order to sediment the membranes, which were next washed three times in homogenization buffer (50,000×g for 20 min. each). The membranes were frozen and stored at −70° C. until needed.
All compounds to be tested were dissolved in DMSO and then diluted into the binding buffer (50 mM Tris, pH 7.5) such that the final concentration was 2 μg/ml with 0.1% DMSO. Membranes were then added (400 μg of protein) to the reaction tubes. The reaction was started by the addition of 3 nM [^3H]R-α-methyl histamine (8.8 Ci/mmol) or 3 nM [^3H]N^α-methyl histamine (80 Ci/mmol) and continued under incubation at 30° C. for 30 min. Bound ligand was separated from unbound ligand by filtration, and the amount of radioactive ligand bound to the membranes was quantitated by liquid scintillation spectrometry. All incubations were performed in duplicate and the standard error was always less than 10%. Compounds that inhibited more than 70% of the specific binding of radioactive ligand to the receptor were serially diluted to determine a Ki (nM). The results are given in Table 1 for the HCl salt of the indicated compounds.

T1 sequence (P31390 whole entry): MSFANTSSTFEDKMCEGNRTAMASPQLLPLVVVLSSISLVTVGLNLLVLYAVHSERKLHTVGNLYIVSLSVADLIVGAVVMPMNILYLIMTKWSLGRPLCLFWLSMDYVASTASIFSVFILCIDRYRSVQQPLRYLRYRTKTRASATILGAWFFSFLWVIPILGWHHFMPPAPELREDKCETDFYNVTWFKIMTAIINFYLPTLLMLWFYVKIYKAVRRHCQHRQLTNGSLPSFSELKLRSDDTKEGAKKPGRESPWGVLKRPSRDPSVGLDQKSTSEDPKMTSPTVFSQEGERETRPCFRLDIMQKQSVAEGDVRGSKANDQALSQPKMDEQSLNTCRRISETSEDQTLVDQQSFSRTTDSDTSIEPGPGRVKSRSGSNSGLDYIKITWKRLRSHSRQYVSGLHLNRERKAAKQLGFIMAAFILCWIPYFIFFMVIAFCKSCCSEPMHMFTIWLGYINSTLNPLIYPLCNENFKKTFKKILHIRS

Regarding `O=C(CC(c1ccc(Cl)cc1)c1ccccn1)N1CCC(Cc2c[nH]cn2)CC1` (stereo not shown), the Ki came out at 19 nM in assay [1] and 0.3 nM in assay [2].

Regarding `Clc1ccc(C(=C2CCN(CCCCc3c[nH]cn3)CC2)c2ccccn2)cc1`, the Ki worked out at 4.5 nM in assay [1] and 3 nM in assay [2].

For `Clc1ccc(C(=C2CCN(CCCCCc3c[nH]cn3)CC2)c2ccccn2)cc1`, the Ki in assay [1] was 4.5 nM; in assay [2], 8 nM. The matching figures for `Clc1ccc(C(c2ccccn2)N2CCN(CCCc3c[nH]cn3)CC2)cc1` (stereo not shown): 40 nM and 66 nM. For `O=C(CC(c1ccc(Cl)cc1)c1ccccn1)N1CCN(CCCCc2c[nH]cn2)CC1` (stereo not shown), the inhibition at 1 µg/mL in assay [1] is 14%. For the same compound, the Ki in assay [2] was 32 nM. Regarding `Clc1ccc(C(c2ccccn2)N2CCN(Cc3c[nH]cn3)CC2)cc1` (stereo not shown), the Ki in assay [1] came out at 5 nM; in assay [2] it was 73 nM.

For `Clc1ccc(C(c2ccccn2)N2CCN(CCCCCCCNCCCCc3c[nH]cn3)CC2)cc1` (stereo not shown), the Ki in assay [1] amounted to 18.5 nM; in assay [2], 21 nM. For `Clc1ccc(C(CCN2CCN(CCCCc3c[nH]cn3)CC2)c2ccccn2)cc1` (stereo not shown) the same measures were 21 nM and 7 nM.

Turning to `c1ccc(C(c2ccccc2)C2CCN(CCCCCc3c[nH]cn3)CC2)cc1`, the Ki in assay [1] amounted to 28 nM; in assay [2] it was 19 nM. Consider `Clc1ccc(C(CN2CCC(CCc3c[nH]cn3)C2)c2ccc(Cl)cc2)cc1` (stereo not shown), for which the inhibition at 1 µg/mL in assay [1] was determined as 18%. In assay [2], the Ki is 25 nM. As to `Clc1ccc(C(=C2CCN(CCCCCCc3c[nH]cn3)CC2)c2ccccn2)cc1`, the Ki in assay [1] came to 3 nM; in assay [2], 11 nM.

With `Clc1ccc(C(CCN2CCN(Cc3c[nH]cn3)CC2)c2ccccn2)cc1` (stereo not shown), the values for the Ki in assay [1] and in assay [2] were 25 nM and 130 nM, respectively. For `O=C(C(c1ccccc1)c1ccccc1)N1CCC(Cc2c[nH]cn2)CC1` the same measures were 50 nM and 66 nM. Regarding `O=C(CC(c1ccccc1)c1ccccc1)N1CCN(Cc2c[nH]cn2)CC1`, the inhibition at 2 µg/mL in assay [2] is 15%. On to `O=C(COCCN1CCN(C(c2ccccc2)c2ccc(Cl)cc2)CC1)NCCCCc1c[nH]cn1` (stereo not shown), for which the Ki in assay [1] is 11 nM; in assay [2], 39 nM.

On to `c1ccc(C(CCN2CCN(Cc3c[nH]cn3)CC2)c2ccccc2)cc1`, for which the Ki in assay [1] turned out to be 80 nM. The inhibition at 2 µg/mL in assay [2] was 62%. As to `O=C(C(c1ccc(Cl)cc1)c1ccc(Cl)cc1)N1CCC(CCc2c[nH]cn2)C1` (stereo not shown), the inhibition at 1 µg/mL in assay [1] amounted to 2%. Further, the Ki in assay [2] was 9.5 nM.

Regarding `Clc1ccc(C(c2ccccc2)N2CCN(Cc3c[nH]cn3)CC2)cc1` (stereo not shown), the results for the Ki in assay [1] and in assay [2] were 1.7 nM and 101 nM, respectively. `Clc1ccc(C(c2ccccn2)N2CCN(CCCCc3c[nH]cn3)CC2)cc1` (stereo not shown): the Ki in assay [1] came out at 5 nM; in assay [2], 39 nM.

As a reminder, the Ki is the dissociation constant of the complex between target and ligand, obtained from inhibition or displacement. For orientation: inhibition means the relative decrease from the control value, in per cent.

The record behind these values is patent US6762186B2, “Substituted imidazoles as dual histamine H1 and H3 agonists or antagonists” (Schering Corporation, priority 2000, dated 2004).
